US20260242350A1, “POLYCYCLIC THYROID HORMONE BETA RECEPTOR AGONIST AND USE THEREOF” (CASCADE PHARMACEUTICALS, INC., priority 2023, published 2026)

Experiments:
[1] = molecular target: T1, THRα LBD (His-GST-dLBT-THRα LBD) (Homo sapiens, UniProt P10827); assay: THR-FRET (time-resolved fluorescence resonance energy transfer) agonist activity assay, THRα; format: biochemical; conditions: 24 h at room temperature
T1 construct: made in house; host or cells: E. coli BL21 (DE3)
T1 sequence (P10827 163-407 isoform P10827-2): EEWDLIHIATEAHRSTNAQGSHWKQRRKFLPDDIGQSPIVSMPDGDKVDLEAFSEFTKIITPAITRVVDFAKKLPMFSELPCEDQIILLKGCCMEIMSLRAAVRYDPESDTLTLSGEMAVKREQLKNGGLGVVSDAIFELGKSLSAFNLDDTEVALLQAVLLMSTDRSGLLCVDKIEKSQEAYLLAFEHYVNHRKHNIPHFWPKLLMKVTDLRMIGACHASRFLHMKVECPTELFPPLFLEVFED
Text: (§1) Experimental Example 1: Detection of Agonist Activities of Compounds Against THRα/β Based on Time-Resolved Fluorescence Resonance Energy Transfer (THR-FRET)
(§2) 1. Construction of THRα/β Overexpression Vectors
(§3) By visiting NCBI, the THRα/β LBD domain sequences were found. The pET21-His-GST-dLBT-THRα LBD and pET21-His-GST-dLBT-THRβLBD overexpression vectors were constructed by the fusion method, and sequenced to confirm the accuracy of the sequences.
(§4) 2. Prokaryotic Expression of Recombinant Proteins in E. coli
(§5) The THRα LBD and THRβLBD overexpression vectors confirmed by sequencing were transfected into E. coli cells BL21 (DE3), and spread on an ampicillin-resistant agar plate. Monoclones were picked out and amplified in an LB medium, and transferred into 1 L LB at a ratio of 1:100 for large-scale culture. When the OD value was at 0.8 to 1.2, 0.5 mM isopropyl-beta-D-thiogalactopyranoside (IPTG) was added, and induced overnight at 18° C. The bacteria were harvested, disrupted, and purified via the GST column and the molecular sieve to obtain two proteins His-GST-dLBT-THRα LBD and His-GST-dLBT-THRβLBD.
(§6) 3. Preparation of Compounds and Formulation of Reaction System
(§7) The proteins were taken out from a refrigerator at −80° C. The protein s with the GST-tagged THRα/p LBD domain and the Eu-labelled GST antibodies were thawed slowly on ice, and an assay buffer containing a final concentration of 5 mM dithiothreitol (DTT) was formulated.
(§8) 3.1 Preparation of Compounds
(§9) The starting concentration of the compound was 10 μM (in DMSO). The compound (100 μM in DMSO) was subjected to 3-fold isogradient dilution with DMSO to obtain a total of 11 isogradient concentrations. Subsequently, the above compounds at the isogradient concentration were further subjected to 50-fold dilution with an assay buffer containing 5 mM DTT.
(§10) 3.2 Formulation of THR-FRET Reaction System
(§11) The final concentrations of all components were calculated based on a system with a final volume of 20 µL per well. To […] of assay buffer containing 5 mM DTT, the GST-tagged THRα/β proteins, the SRC2 ([…]) polypeptide, XL665 (Cisobio, #610SAXLB), and the Eu-labeled GST antibody were added, and the final concentrations were 2 nM, 200 nM, 0.05 nM, and 7.6 nM respectively to formulate 18 μL of reaction mixture of the proteins, polypeptide, and antibody per well.
(§12) 18 μL of reaction mixture and 2 μL of diluted compound were added into an optiplate-384-well plate, and reacted at room temperature for 24 h.
(§13) The plate was read using an MD i3x multi-mode microplate reader with the excitation and emission wavelengths of 340 nm and 665 nm, respectively. The intensity of light at a wavelength of 616 nm generated by europium excited by 340 nm wavelength light from the MD i3x multi-mode microplate reader was used as the background. According to the different activation degrees of different compounds against THRα and THRβ, the intensity of the emission light at a wavelength of 665 nm generated by exciting XL665 with the exciting light at a wavelength of 616 nm was varied. The intensity ratio between these two light wavelengths (665 nm, 616 nm) was used as the activation activity of the compound against THRα or THRβ, and was normalized against the ratio in the vehicle DMSO group. The dose-response curve was fitted with four parameters using the GraphPad Prism 6.0 software, and the EC50 value was calculated.

[2] = molecular target: T2, THRβ LBD (His-GST-dLBT-THRβLBD) (Homo sapiens, UniProt P10828); assay: THR-FRET (time-resolved fluorescence resonance energy transfer) agonist activity assay, THRβ; format: biochemical; conditions: for EC50: 24 h at room temperature; for Selectivity (THRα/THRβ): ratio of EC50 THRα/THRβ
T2 construct: made in house; host or cells: E. coli BL21 (DE3)
T2 sequence (P10828 217-461 limits assumed): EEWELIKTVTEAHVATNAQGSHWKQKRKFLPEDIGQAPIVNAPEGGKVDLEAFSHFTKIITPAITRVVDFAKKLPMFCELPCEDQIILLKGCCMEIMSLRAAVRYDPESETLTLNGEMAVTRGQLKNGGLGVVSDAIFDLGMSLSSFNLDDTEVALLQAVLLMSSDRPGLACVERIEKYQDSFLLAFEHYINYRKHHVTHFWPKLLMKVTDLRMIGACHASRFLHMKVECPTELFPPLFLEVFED
Text: as §1, §2, §3, §4, §5, §6, §7, §8, §9, §10, §11, §12, §13

THRβ (pGAL4-THRβ-LBD) = molecular target: T3, THRβ (pGAL4-THRβ-LBD) (Homo sapiens, UniProt P10828); assay: Reporter gene (Dual-Glo luciferase) agonist activity assay in HEK293T cells, THRβ; format: cell-based; conditions: ratio of EC50 THRα/THRβ
T3 construct: expressed in transfected cells; host or cells: HEK293T
T3 sequence (P10828 217-461): T2 sequence (P10828 217-461 limits assumed)
Text: Experimental Example 2: Detection of Agonist Activities of Compounds Against THRα and THRβ Based on Reporter Gene Activity Assay Method
1.1 Construction and Preparation of Plasmids pGAL4-THR-LBD and pG5-Luc
The pGAL4-THRα-LBD and pGAL4-THRβ-LBD plasmids used in the reporter gene assay system were constructed by a conventional molecular cloning method comprising the following main steps: the cDNA sequences of THRα (NM_003250) and THRβ(NM_000461) corresponding to the amino acid sequences of THRα (163-407AA) and THRβ(217-461AA) were inserted into the BamHI and NotI enzyme digestion sites of the pGAL4 vector by the PCR technique respectively to obtain the pGAL4-THRα-LBD and pGAL4-THRβ-LBD plasmids; the pG5-Luc (#E249A) and pRL-TK (#E2241) plasmids were purchased from Promega; the plasmids were transfected into the E. coli DH5a by the CaCl2 method, and after further culture and amplification, the plasmids were purified by Plasmid Extraction Kits (TIANGEN, #D107) to obtain the corresponding plasmid DNAs.
1.2 Co-Transfection of Plasmids into HEK293T Cells and Treatment with Compounds
The HEK293T cells were inoculated into a 96-well plate at a density of 1×10^4/well the day before plasmid transfection. Cell transfection was conducted according to the instructions of the transfection reagent FuGENE® HD (Promega, #E2311). The main steps were as follows: taking one well as an example here, the plasmids pGAL4-THRα-LBD or pGAL4-THRβ-LBD, pG5-Luc, and pRL-TK were added in the proportions of 20 ng, 50 ng, and 5 ng to 10 μL of Opti-MEM™ I medium (Gibco, #11058021) and mixed well; subsequently, 0.25 μL of FuGENE® HD was added, mixed well, and then left at room temperature for 5 min; afterwards, […] was added to the cell wells containing 100 μL of culture medium. After cell co-transfection for 6 h, the compound was diluted in a 3-fold gradient with dimethyl sulfoxide at the highest concentration of 1 μM. The compound was added to the cell culture medium at a total of 10 concentrations for treatment for 24 h. There were a total of two duplicate wells for each concentration. Triiodothyronine (T3) was used as the positive control.
1.3 Dual-Glo Luciferase Assay
After the cells were treated with the compound for 24 h, the cells were assayed according to the instructions of Dual-Glo® Luciferase Assay System (Promega, #E2940). The main steps were as follows: 50 μL of culture medium was aspirated from each well and discarded, and then 50 μL of Dual-Glo® Luciferase reagent was added and oscillated at room temperature for 10 min; 80 μL of lysis reaction solution was measured into a white opaque optiPlate-96-well plate, and the luminescence signal value (Firefly-Luc) of the Firefly luciferase was detected using an MD i3x multi-mode microplate reader; 40 μL of Dual-Glo® Stop & Glo® reagent was then added, and oscillated at room temperature for 10 min; the luminescence signal value (Renilla-Luc) of the Renilla luciferase was then detected using an MD i3x multi-mode microplate reader. The Firefly-Luc/Renilla-Luc ratio was used as the activation activity of the compound against THR, and was normalized against the ratio in the vehicle DMSO group; the dose-response curve was fitted with four parameters using the GraphPad Prism6.0 software, and the EC50 value was calculated.

Compound	EC50 [1] [µM]	EC50 [2] [µM]	Selectivity (THRα/THRβ) [2]	Selectivity (THRα/THRβ) (THRβ (pGAL4-THRβ-LBD))
Cc1cccc2c1c(=O)ccn2Cc1c(Cl)cc(-n2ncc(=O)[nH]c2=O)cc1Cl [Compound 14]	0.1 to 1	0.1 to 1	†† (10 > THRα/β > 1)	† (5 ≥ THRα/β)
Cc1cccc2c1c(=O)ccn2Cc1c(Cl)cc(-n2ncc(=O)[nH]c2=O)cc1Br [Compound 17]	0.1 to 1	< 0.05	†† (10 > THRα/β > 1)	††† (20 ≥ THRα/β > 10)
Cc1cccc2c1c(=O)ccn2Cc1c(Br)cc(-n2ncc(=O)[nH]c2=O)cc1Br [Compound 18]	0.05 to 0.1	< 0.05	†† (10 > THRα/β > 1)	†† (10 ≥ THRα/β > 5)
O=c1[nH]c(=O)n(-c2cc(Cl)c(Cn3ccc(=O)c4ccccc43)c(Cl)c2)nc1C(F)F [Compound 28]	0.1 to 1	< 0.05	†† (10 > THRα/β > 1)	†††† (THRα/β > 20)
O=c1[nH]c(=O)n(-c2cc(Br)c(Cn3ccc(=O)c4ccccc43)c(Br)c2)nc1C(F)F [Compound 29]	0.05 to 0.1	< 0.05	†† (10 > THRα/β > 1)	†††† (THRα/β > 20)
O=c1[nH]c(=O)n(-c2cc(Cl)c(Cn3ccc(=O)c4ccccc43)c(Br)c2)nc1C(F)F [Compound 30]	0.1 to 1	< 0.05	†† (10 > THRα/β > 1)	†††† (THRα/β > 20)
Nc1nn(-c2cc(Cl)c(Cn3ccc(=O)c4ccccc43)c(Cl)c2)c(=O)[nH]c1=O [Compound 32]	1 to 10	0.1 to 1	†† (10 > THRα/β > 1)	† (5 ≥ THRα/β)
C=Cc1nn(-c2cc(Cl)c(Cn3ccc(=O)c4ccccc43)c(Cl)c2)c(=O)[nH]c1=O [Compound 35]	1 to 10	0.1 to 1	†† (10 > THRα/β > 1)	† (5 ≥ THRα/β)
O=c1[nH]c(=O)n(-c2cc(Cl)c(Cn3ccc(=O)c4ccccc43)c(Cl)c2)nc1CF [Compound 37]	0.1 to 1	0.05 to 0.1	†† (10 > THRα/β > 1)	†††† (THRα/β > 20)
Cc1nn(-c2cc(Cl)c(Cn3ccc(=O)c4ccccc43)c(Cl)c2)c(=O)[nH]c1=O [Compound 41]	1 to 10	0.1 to 1	†† (10 > THRα/β > 1)	† (5 ≥ THRα/β)
Cc1nn(-c2cc(Br)c(Cn3ccc(=O)c4ccccc43)c(Br)c2)c(=O)[nH]c1=O [Compound 43]	0.1 to 1	0.05 to 0.1	†† (10 > THRα/β > 1)	† (5 ≥ THRα/β)
Cc1nn(-c2cc(Cl)c(Cn3ccc(=O)c4c(C)cccc43)c(Cl)c2)c(=O)[nH]c1=O [Compound 44]	0.1 to 1	0.05 to 0.1	†† (10 > THRα/β > 1)	† (5 ≥ THRα/β)
Cc1nn(-c2cc(Br)c(Cn3ccc(=O)c4c(C)cccc43)c(Br)c2)c(=O)[nH]c1=O [Compound 45]	0.1 to 1	< 0.05	†† (10 > THRα/β > 1)	† (5 ≥ THRα/β)
Cc1nn(-c2cc(Cl)c(Cn3ccc(=O)c4c(C)cccc43)c(Br)c2)c(=O)[nH]c1=O [Compound 46]	0.05 to 0.1	< 0.05	†† (10 > THRα/β > 1)	† (5 ≥ THRα/β)
Cc1cccc2c1c(=O)ccn2Cc1c(Cl)cc(-n2nc(C(F)F)c(=O)[nH]c2=O)cc1Cl [Compound 47]	0.1 to 1	< 0.05	†† (10 > THRα/β > 1)	† (5 ≥ THRα/β)
Cc1cccc2c1c(=O)ccn2Cc1c(Cl)cc(-n2nc(C(F)F)c(=O)[nH]c2=O)cc1Br [Compound 48]	< 0.05	< 0.05	†† (10 > THRα/β > 1)	† (5 ≥ THRα/β)
